SMILES strings stand for the structures.

Molecule `CCCCC1NCCNC1=O` (stereo unspecified) displayed a melting point of 67 to 69 °C.

Molecule `COc1ccc(Br)cc1CC(=O)O` returned a melting point of 132 to 134 °C.

The molecule `O=C(O)c1cc(S)ccc1Br` gave a melting point of 146 to 148 °C.

Consider `O=C(O)COc1ccc(C2SCCCS2)cc1`, for which the melting point fell in the range of 201 to 203 °C.

Turning to `Nc1ccc(-c2csc(N3CCOCC3)n2)cc1`, the melting point lay in the range of 174 to 176 °C.

In turn, `CC(=O)c1ccc(N)cc1Cl` registered a melting point of 58 to 60 °C.

The molecule `CC(NS(=O)(=O)c1ccc(N)cc1)C1CC2CCC1C2` (stereo unspecified) gave a melting point of 202 to 204 °C.

As to `O=C(NC1(c2nn[nH]n2)CCCC1)c1ccccc1`, the melting point fell in the range of 228 to 230 °C.

In turn, `CC(C)(CC(=O)O)NC(=O)OC(C)(C)C` returned a melting point of 89 to 91 °C.

`Cc1cc(O)nc(C(C)Cl)n1` (stereo unspecified) yielded a melting point of 132 to 134 °C.

In turn, `COc1ccc(C2C(C(N)=O)CCC(=O)N2C)cc1` (stereo unspecified) came in with a melting point of 220 to 222 °C.

In the case of `Cc1oc(-c2cnn(C)c2)nc1C(=O)O`, the melting point lay in the range of 249 to 251 °C.

`CC(C)(C)NC(=O)NC(=O)CCl` came in with a melting point of 109 to 112 °C.

In turn, `Ic1c[nH]c2ccncc12` displayed a melting point of 171 to 173 °C.

As for `Clc1ccc2nccn2n1`, the melting point was in the range of 114 to 116 °C.

`COc1ccc(C(C)CC(=O)O)cc1` (stereo unspecified) gave a melting point of 66 to 68 °C.

`CC1CCC(NC(=O)CN2CCNCC2)CC1` (stereo unspecified) displayed a melting point of 120 to 122 °C.

`CN(c1ccc(CN)cc1)S(C)(=O)=O` registered a melting point of 46 to 48 °C.

As to `Cn1cnnc1SCc1ccc(C(=O)O)o1`, the melting point was in the range of 179 to 181 °C.

On to `CS(=O)(=O)OCCN1C(=O)c2ccccc2C1=O`, for which the melting point fell in the range of 140 to 142 °C.

`CC(C)(C)c1cc(N)n(-c2ccc(F)cc2)n1`: the melting point was 98 to 100 °C.

As for `O=Cc1cnc(N2CCOCC2)nc1`, the melting point lay within 147 to 149 °C.

Turning to `O=[N+]([O-])c1cc(Cl)ccc1S(=O)(=O)Cl`, the melting point was 74 to 76 °C.

Consider `CCCCc1ccc(NS(=O)(=O)c2ccc(N)cc2OC)cc1`, for which the melting point is 170 to 172 °C.

Molecule `O=C(O)C1CCCN(S(=O)(=O)c2ccc(Cl)cc2)C1` (stereo unspecified) came in with a melting point of 202 to 204 °C.

For the molecule `CCNc1ncc(C(=O)O)s1`, the melting point lay within 187 to 189 °C.

Take `Nc1ccccc1-c1ncc[nH]1`: the melting point lay in the range of 132 to 134 °C.

Consider `O=C(O)CC1Sc2ccccc2NC1=O` (stereo unspecified), for which the melting point was 188 to 190 °C.

`CCOc1ccccc1OCCCC(=O)O` registered a melting point of 66 to 68 °C.

Molecule `Cc1cc(C)c(S(=O)(=O)NCCC(=O)O)c(C)c1` showed a melting point of 118 to 120 °C.

`O=C(O)c1ccccc1CN1C(=O)CNC1=O` came in with a melting point of 201 to 203 °C.

Molecule `Cc1c(C(=O)O)oc2ccc(Br)cc12` gave a melting point of 249 to 251 °C.

`COc1ccc2cc(N)ccc2n1` registered a melting point of 101 to 103 °C.

The molecule `CC(=O)c1c(Cl)nc2ccccn12` returned a melting point of 116 to 118 °C.

The molecule `O=C(O)c1oc2ccccc2c1CSC1=NCCS1` returned a melting point of 190 to 192 °C.

Turning to `Cc1nc(S(=O)(=O)N2CCC(C(=O)O)CC2)cn1C`, the melting point fell in the range of 262 to 264 °C.

For `Clc1ccc(NCCc2ccccc2)nn1`, the melting point was 159 to 161 °C.

For `O=C(O)CCNC(=O)c1ccc(F)cc1F`, the melting point was 118 to 120 °C.

In turn, `CCC(C)C(C)S(N)(=O)=O` (stereo unspecified) returned a melting point of 44 to 46 °C.

As to `CCc1ccccc1OCC(=O)O`, the melting point fell in the range of 123 to 127 °C.

The molecule `Cn1c(Cl)nnc1-c1ccccc1` came in with a melting point of 161 to 163 °C.

The molecule `N#Cc1ccc(F)c(CN2CCCC2=O)c1` yielded a melting point of 92 to 94 °C.

The molecule `COc1ccc(NC(C)=O)cc1S(N)(=O)=O` yielded a melting point of 220 to 222 °C.

`Cc1ccc(C(=O)O)cc1NC(=O)c1ccccc1F` came in with a melting point of 268 to 270 °C.

Take `O=C(O)c1cc(Br)cc([N+](=O)[O-])c1Cl`: the melting point was in the range of 226 to 228 °C.

`Cc1ccccc1-n1cc(C(=O)O)cn1` gave a melting point of 106 to 108 °C.

The molecule `O=Cc1cn(-c2ccccc2)nc1-c1ccc(Br)cc1` gave a melting point of 141 to 143 °C.

`COc1ccc(C(=O)O)cc1-c1ccn(C)n1` came in with a melting point of 179 to 181 °C.

With `O=C(O)COc1ccc([N+](=O)[O-])c(F)c1`, the melting point lay in the range of 149 to 151 °C.

Regarding `Cc1cc(S(N)(=O)=O)ccc1[N+](=O)[O-]`, the melting point lay within 131 to 133 °C.

As for `CCCc1nc(C(=O)O)nn1-c1ccccc1F`, the melting point was 137 to 139 °C.

`Cc1cc2ncn(CC3CO3)c2cc1C` (stereo unspecified) showed a melting point of 119 to 121 °C.

`CCc1c(C(C)O)oc2ccccc12` (stereo unspecified) had a melting point of 66 to 68 °C.

Consider `CC1CN(c2ccc(NC(=O)CCl)cc2)CC(C)O1` (stereo unspecified), for which the melting point lay in the range of 175 to 177 °C.

The molecule `Cc1cnn(-c2ccc(N)cc2F)c1` showed a melting point of 57 to 59 °C.

Regarding `CC(=O)N1CCN(c2cc(C#N)ccn2)CC1`, the melting point lay in the range of 107 to 109 °C.

As to `CC(=O)Oc1ccc(C)cc1C(=O)O`, the melting point is 154 to 156 °C.

In turn, `COc1cc(-n2cnnn2)c(Cl)cc1C(=O)O` had a melting point of 331 to 333 °C.

Consider `Nc1ccc(S(=O)(=O)Nc2ccc(F)cc2F)cc1`, for which the melting point lay within 162 to 164 °C.

`O=C(O)CN1CCS(=O)(=O)CC1`: the melting point is 179 to 181 °C.

`O=C(O)CCc1nccs1` showed a melting point of 123 to 125 °C.

For the molecule `Cc1cc(/C=C(\C#N)C(=O)O)c(C)n1CCC(C)C`, the melting point was 229 to 231 °C.

As to `Cc1ccc(NC(=O)CC2(C(=O)O)CCCC2)cc1`, the melting point was 191 to 193 °C.

In the case of `CCOC(=O)Cc1nnc(S)n1Cc1ccco1`, the melting point was under 17 °C.

On to `CC1(NC(=O)CCl)CCS(=O)(=O)C1` (stereo unspecified), for which the melting point lay within 96 to 98 °C.

`O=C(CCCc1ccccc1)Cc1ccc(Cl)cc1`: the melting point fell in the range of 31 to 33 °C.

Consider `NNC(=O)c1cc([N+](=O)[O-])c[nH]1`, for which the melting point was in the range of 280 to 282 °C.

As to `Cc1nc2ccccc2c(=O)n1-c1ccc(Br)cc1`, the melting point lay in the range of 176 to 178 °C.

`CC(=O)Nc1ccccc1OCc1ccc(C(=O)O)o1`: the melting point lay in the range of 179 to 181 °C.

In the case of `Cn1cc(C=O)c(-c2ccc([N+](=O)[O-])cc2)n1`, the melting point was in the range of 175 to 177 °C.

`CC(C)(C)OC(=O)NCc1nnc(S)o1` came in with a melting point of 106 to 108 °C.

As to `CN1NC=C2CN=C(Cl)N=C21`, the melting point was 189 to 191 °C.

`CC(CCc1ccccc1)NS(=O)(=O)c1ccc(Cl)c(C(=O)O)c1` (stereo unspecified) returned a melting point of 94 to 96 °C.

Take `Nc1cc2c(cc1[N+](=O)[O-])OCCCO2`: the melting point was in the range of 73 to 77 °C.

As to `O=C(O)c1ccccc1CSc1nnc[nH]1`, the melting point fell in the range of 177 to 179 °C.

As to `CCn1cc2ccc(N)cc2n1`, the melting point lay within 97 to 99 °C.

Molecule `CC(NC(=O)CCl)C1CC2CCC1C2` (stereo unspecified) came in with a melting point of 87 to 89 °C.

Regarding `CCCCc1ccc(CC(=O)O)cc1`, the melting point lay in the range of 78 to 80 °C.

`O=C(O)c1ccc(COc2ccc(F)cc2)o1` registered a melting point of 165 to 167 °C.

`NC(=O)c1ncccc1N` came in with a melting point of 176 to 178 °C.

For the molecule `CC(C)S(=O)(=O)Nc1ccc(C(=O)O)cc1`, the melting point fell in the range of 179 to 181 °C.

Consider `O=C(O)C(=O)NCc1ccc(F)cc1`, for which the melting point fell in the range of 134 to 136 °C.

For the molecule `O=[N+]([O-])c1cnccc1S`, the melting point fell in the range of 109 to 111 °C.

Molecule `Nc1ccccc1CC(=O)O` yielded a melting point of 119 to 121 °C.

For `CN(C1CC1)S(=O)(=O)c1ccc(N)cc1`, the melting point was 131 to 133 °C.

With `COc1ccccc1CNc1nc(-c2ccc(C)cc2)cs1`, the melting point was in the range of 96 to 98 °C.
